Measured values reported in patent US8980902B2, “Poly (ADP-ribose) polymerase (PARP) inhibitors” (Takeda Pharmaceutical Company Limited, priority 2009, dated 2015).

How the values were obtained:
PARP = target: T1, PARP (Homo sapiens, UniProt P09874); assay: PARP ELISA (ELISA-based colorimetric PARP/Apoptosis Assay kit), inhibition of PARP catalytic activity; assay type: biochemical; conditions: pIC50 = -log10 IC50 (molar); 0.1 nM PARP stock, 100 μM NAD+ stock with activated DNA, 10 min catalysis
T1 construct: purchased Trevigen 4684-096-01 (enzyme); kit 4684-096-K HT
T1 sequence (P09874 whole entry): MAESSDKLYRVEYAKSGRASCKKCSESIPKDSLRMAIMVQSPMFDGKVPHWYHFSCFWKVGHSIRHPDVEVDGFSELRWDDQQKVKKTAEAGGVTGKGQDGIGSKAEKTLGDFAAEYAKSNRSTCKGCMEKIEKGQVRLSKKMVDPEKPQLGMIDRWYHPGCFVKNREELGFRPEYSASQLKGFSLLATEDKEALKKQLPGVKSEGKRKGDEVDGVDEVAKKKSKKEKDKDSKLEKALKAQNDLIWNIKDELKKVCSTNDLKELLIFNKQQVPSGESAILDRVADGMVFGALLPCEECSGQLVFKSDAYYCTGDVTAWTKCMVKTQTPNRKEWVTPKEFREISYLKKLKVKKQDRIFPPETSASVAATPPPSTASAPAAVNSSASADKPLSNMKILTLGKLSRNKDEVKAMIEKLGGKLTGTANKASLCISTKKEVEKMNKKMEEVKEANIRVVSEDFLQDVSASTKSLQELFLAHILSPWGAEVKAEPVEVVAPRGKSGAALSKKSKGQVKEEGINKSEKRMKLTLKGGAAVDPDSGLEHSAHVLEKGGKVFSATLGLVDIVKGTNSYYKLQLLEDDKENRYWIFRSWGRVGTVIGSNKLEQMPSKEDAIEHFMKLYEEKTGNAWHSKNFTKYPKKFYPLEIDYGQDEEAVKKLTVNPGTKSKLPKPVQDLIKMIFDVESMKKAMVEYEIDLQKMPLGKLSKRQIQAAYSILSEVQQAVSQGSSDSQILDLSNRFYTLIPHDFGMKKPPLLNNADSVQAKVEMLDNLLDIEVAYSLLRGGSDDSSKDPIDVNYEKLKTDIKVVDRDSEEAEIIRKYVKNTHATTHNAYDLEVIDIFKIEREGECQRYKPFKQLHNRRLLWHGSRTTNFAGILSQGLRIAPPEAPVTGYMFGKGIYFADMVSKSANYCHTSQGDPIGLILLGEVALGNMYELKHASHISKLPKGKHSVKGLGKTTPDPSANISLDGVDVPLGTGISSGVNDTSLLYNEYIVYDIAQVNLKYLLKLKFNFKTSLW
Protocol: Inhibition Constant (IC50) from PARP ELISA
Inhibition of PARP catalytic activity was determined by use of an ELISA-based colorimetric PARP/Apoptosis Assay kit (part number 4684-096-K HT, Trevigen). To each histone coated well in the 96-well plate supplied by the manufacturer (part number 4677-096-P) is added 39 μL of PARP buffer (part number 4671-096-02) and 1 μL of test compound dissolved in DMSO (diluted serially 3-fold 11 times). After mixing, 5 μL of 0.1 nM PARP (part number 4684-096-01) is added and the solution allowed to stand at ambient temperature for 10 minutes. PARP catalysis is initiated with the addition of 5 μL of 100 μM β-nicotinamide adenine dinucleotide (NAD+) (part number 4684-096-02) with activated DNA (part number 4671-096-06). After 10 minutes of catalysis the reaction is quenched by solvent aspiration followed by irrigation of the assay wells 4 times with phosphate buffered saline (PBS) containing 0.1% t-octylphenoxypolyethoxyethanol (Triton® X-100). Mouse Anti-poly ADP ribose (PAR) monoclonal antibody, goat antimouse immunoglobulin G (IgG)-horse radish peroxidase (HRP) conjugate and HRP substrate are added according to the manufacture's specifications to generate a colorimetric signal proportional to PARP catalytic activity. An IC50 for the test compound is calculated from the equation Absorbance=(Amax−background)/(1+([cmpd]/IC50)^n)+background fit to the 12 point test compound concentration gradient via nonlinear least squares.
(§1) Here, pIC50=−log10 IC50, where IC50 is the molar concentration of the compound at 50% inhibition.

Jurkat cell line = assay: PARP cellular chemopotentiation assay (MTS viability, with and without Temozolomide); assay type: cell-based; conditions: Chemopotentiation factor: ratio of EC50 for cell viability without and with 100 μM TMZ, Jurkat cells, 96 hours of treatment
Protocol: Potentiation Factor (PF50) Determination from PARP Cellular Chemopotentiation Assay
Jurkat cell line was maintained according to the supplier (American Type Culture Collection (Rockville, Md.)). Cells were seeded in 96-well tissue culture microplates at 10,000 cells per well and cultured for 24 hours prior to addition of compounds, TMZ (Temozolomide) or DMSO (dimethylsulfoxide) vehicle. After 96 hours of treatment, the conversion of MTS ([3-(4,5-dimethylthiazol-2-yl)-5-(3-carboxymethoxyphenyl)-2-(4-sulfophenyl)-2H-tetrazolium, inner salt], Promega, Madison, Wis.) by metabolically active cells was determined through measuring the OD490 nm with a Spectramax microplate reader (Molecular Devices, San Diego, Calif.). To generate concentration-response curves, cells were treated in duplicate with a range of serial compound dilutions (final DMSO concentration was 0.5%) in the absence or presence of 100 μM TMZ chemoreagent. The percentage of viable cells per well was calculated by correction for background and normalizing against DMSO-treated cells. EC50 values for inhibition of cell viability were calculated using XLfit4 MicroSoft Excel curve-fitting software. Chemopotentiation factor PF50 was calculated as the ratio of EC50 values of cells co-treated without and with TMZ, respectively.
as §1

Row | Structure (SMILES) | IC50 (PARP) [µM] | PF50 (Jurkat cell line)
1 | CCNC(=O)c1ccc(N2CCN(Cc3cnc4c(c3)[nH]c(=O)n3cccc43)CC2)c(Cl)c1 [Example 6, 3-chloro-N-ethyl-4-(4-((6-oxo-5,6-dihydropyrido[2,3-e]pyrrolo[1,2-c]pyrimidin-3-yl)methyl)piperazin-1-yl)benzamide] | ≤ 0.01 | >1000
2 | CCNC(=O)c1ccc(N2CCN(Cc3cnc4c(c3)[nH]c(=O)n3cccc43)CC2)c(C)c1 [Example 8, N-ethyl-3-methyl-4-(4-((6-oxo-5,6-dihydropyrido[2,3-e]pyrrolo[1,2-c]pyrimidin-3-yl)methyl)piperazin-1-yl)benzamide] | ≤ 0.01 | >1600
3 | CNC(=O)c1ccc(N2CCN(Cc3cnc4c(c3)[nH]c(=O)n3cccc43)CC2)c(F)c1 [Example 9, 3-fluoro-N-methyl-4-(4-((6-oxo-5,6-dihydropyrido[2,3-e]pyrrolo[1,2-c]pyrimidin-3-yl)methyl)piperazin-1-yl)benzamide] | ≤ 0.01 | >16
4 | CNC(=O)c1ccc(N2CCN(Cc3cnc4c(c3)[nH]c(=O)n3cccc43)CC2)cc1 [Example 3, N-methyl-4-(4-((6-oxo-5,6-dihydropyrido[2,3-e]pyrrolo[1,2-c]pyrimidin-3-yl)methyl)piperazin-1-yl)benzamide] | ≤ 0.01 | >24000
5 | CCNC(=O)c1ccc(N2CCN(Cc3cnc4c(c3)[nH]c(=O)n3cccc43)CC2)c(F)c1 [Example 10, N-ethyl-3-fluoro-4-(4-((6-oxo-5,6-dihydropyrido[2,3-e]pyrrolo[1,2-c]pyrimidin-3-yl)methyl)piperazin-1-yl)benzamide] | ≤ 0.01 | >60
6 | O=C(NC1CC1)c1ccc(N2CCN(Cc3cnc4c(c3)[nH]c(=O)n3cccc43)CC2)cc1 [Example 4, N-cyclopropyl-4-(4-((6-oxo-5,6-dihydropyrido[2,3-e]pyrrolo[1,2-c]pyrimidin-3-yl)methyl)piperazin-1-yl)benzamide] | ≤ 0.01 | >1000
7 | CCNC(=O)c1ccc(N2CCN(Cc3cnc4c(c3)[nH]c(=O)n3cccc43)CC2)cc1 [Example 2, N-ethyl-4-(4-((6-oxo-5,6-dihydropyrido[2,3-e]pyrrolo[1,2-c]pyrimidin-3-yl)methyl)piperazin-1-yl)benzamide] | ≤ 0.01 | >1000
8 | CNC(=O)c1ccc(N2CCN(Cc3cnc4c(c3)[nH]c(=O)n3cccc43)CC2)c(C)c1 [Example 7, N,3-dimethyl-4-(4-((6-oxo-5,6-dihydropyrido[2,3-e]pyrrolo[1,2-c]pyrimidin-3-yl)methyl)piperazin-1-yl)benzamide] | ≤ 0.01 | >900
9 | CNC(=O)c1ccc(N2CCN(Cc3cnc4c(c3)[nH]c(=O)n3cccc43)CC2)c(Cl)c1 [Example 5, 3-chloro-N-methyl-4-(4-((6-oxo-5,6-dihydropyrido[2,3-e]pyrrolo[1,2-c]pyrimidin-3-yl)methyl)piperazin-1-yl)benzamide] | ≤ 0.01 | >63
